# Reference: patent US20090203689A1, “ABCA-1 ELEVATING COMPOUNDS AND METHODS” (priority 2008, published 2009)
# Test system: ABCA-1
# Assay: Measurement of ABCA-1 protein expression (western blot) in liver of treated ZDF rats
# Assay type: in vivo, ZDF (Zucker diabetic fatty) rats
# Details: treated at 0, 2 and 4 hrs, western blot quantitated by densitometry, normalized to time-point vehicle controls, time-course (FIG. 2)
# Description: FIG. 2 illustrates the time-course of the effect of treatment on hepatic ABCA1 protein expression in ZDF rats. Rats were treated with a test compound of Formula I at 0, 2 and 4 hrs. […] ABCA1 protein expression was measured by western blot and quantitated by densitometry, Time-point vehicle controls were used to normalize ABCA1 expression at each time-point.
# Cellular ABCA-1 protein expression in cells or tissues were quantitated from homogenates prepared from tissue or cells homogenized in a lysis buffer containing protease inhibitors. Lysate proteins were separated by SDS-PAGE and western blotted for ABCA11 and a housekeeping protein. ABCA-1 was detected with a mouse monoclonal antibody that cross-reacts with human, rat and mouse. β-Actin (or other commonly used normalization proteins) were detected with the appropriate commercial antibody. Using the described assay, the effect of treatment on hepatic ABCA1 protein expression in ZDF rats was determined. Rats were treated with a test compound of Formula I at 0, 2 and 4 hrs. […] Time-point vehicle controls were used to normalize ABCA1 expression at each time-point. The test compound of Formula I used in the experiments of FIG. 2 was 2-{6-[((1R,2R)-2-hydroxycyclopentyl)amino]purin-9-yl}(4S,5S,2R,3R)-5-[(2-fluorophenylthio)methyl]oxolane-3,4-diol.
compound,measurement,value
"O[C@@H]1[C@H](O)[C@@H](CSc2ccccc2F)O[C@H]1n1cnc2c(N[C@@H]3CCC[C@H]3O)ncnc21 [2-{6-[((1R,2R)-2-hydroxycyclopentyl)amino]purin-9-yl}(4S,5S,2R,3R)-5-[(2-fluorophenylthio)methyl]oxolane-3,4-diol]",hepatic ABCA1 protein expression,increases ABCA-1 protein expression with time
